# Data from article PMC5632533, “Mechanisms of action and in vivo antibacterial efficacy assessment of five novel hybrid peptides derived from Indolicidin and Ranalexin against Streptococcus pneumoniae” (PeerJ, 2017).
# Legend:
# ICR (CD-1) mice = assay: In vivo toxicity in mice (SC, IN, IP routes); design: Aspartate aminotransferase, AST / Alanine transaminase, ALT / Alkaline phosphatase, ALP / Creatinine / Urea / Total bilirubin: unit not given here; settings: for Eosinophil / Erythrocytes, RBC / Hematocrit, HCT / Hemoglobin Hgb / Lymphocytes / Mean corpuscular haemoglobin concentration, MCHC / Mean corpuscular haemoglobin, MCH / Mean corpuscular volume, MCV / Monocytes / White blood cells, WBC / platelet Counts, PLT / Granulocytes / Alanine transaminase, ALT / Alkaline phosphatase, ALP / Aspartate aminotransferase, AST / Creatinine / Total bilirubin / Urea: 3 doses (1hr, 12hr, 24hr), RN7-IN9, RN7-IN6 10 mg/kg, day 7, mean±SD, 4 mice; for Alanine transaminase, ALT / Alkaline phosphatase, ALP / Aspartate aminotransferase, AST / Creatinine / Total bilirubin / Urea: serum
# Experimental: In this study, 4-week old male, pathogen free ICR (CD-1) mice were purchased from InVivos (Lim Chu Kang, Singapore) and used to assess the in vivo toxicity and antibacterial efficacy of the novel peptides, as these animals are by far the most commonly used model for the study of pneumococcal disease ([Chiavolini, Pozzi & Ricci, 2008]). The mice were kept in ventilated polycarbonate cages (12 h light/dark cycle, 20 ± 2 °C and 55% relative humidity). All mice were familiarized for seven days before any experimental procedure and were given unlimited pellets and water ad libitum. All animal experimentations were conducted according to the guidelines approved by Faculty of Medicine Institutional Animal Care and Use Committee (FOM IACUC), University of Malaya (ethics Reference no. : 2013-07-15/MMBTR/SDS).
# In order to evaluate the possible toxic effects correlated to peptides administered in mice, four hybrid peptides RN7-IN10, RN7-IN9, RN7-IN8 and RN7-IN6 were chosen for in vivo toxicity assessment, due to their promising in vitro antibacterial activity ([Jindal et al., 2015]). Mice were separated into four groups (each with four mice) and were injected with respective peptides at 1 h, 12 h, and 24 h (three-dose regimen) via IP, SC, and IN administration routes. The hybrid peptides were first administered at high doses (100 mg/kg for IP route, 100 mg/kg for SC routes and 20 mg/kg for IN route). Any abnormal behavior was recorded and survival of mice was noted as well. In case adverse effects such as high physical stress, severe lethargy, physical inactiveness, and/or death were detected, lower graded doses were given. All the administered mice were monitored for seven days or until death occurred. At day seven post administration, all animals were sacrificed and blood and organs were collected. Untreated mice were used as a control group.
# Mice used to evaluate the in vivo toxicity and antibacterial activity of the hybrid peptides using the subcutaneous (SC) and intranasal (IN) administration routes, were anesthetized using a combination of a standard dose of xylazine (ilium xylazil-20, 10 mg/kg) and ketamine (Narketan®-10, 100 mg/kg) through intraperitoneal (IP) injection. After seven days of treatment, the in vivo toxicity and antibacterial efficacy experiments were ended and the surviving mice were anesthetized. Blood samples for Hematological and biochemical analysis were collected via cardiac puncture using a 25G syringe (BD bioscience, San Jose, CA, USA). Whole blood for heamatological analysis was collected in 500 µl dipotassium EDTA microtainer tubes (BD Bioscience, USA). About 500 µl of blood collected an eppedorff tube and centrifuged at 8000 rpm for 5 min and then the serum was transferred into a new 1.5 ml tube for biochemistry analysis. The mice were then euthanized by cervical dislocation, dissected and the following organs were collected for histopathology evaluation: lung, kidney, brain, liver and spleen.
# For whole blood analysis, the parameters were number of red cells (RBC), number of white cells (WBC), lymphocytes, monocytes, eosinophil, granulocytes, haemoglobin (Hgb), mean corpuscular volume (MCV), hematocrit (HCT), platelet Counts (PLT), Mean corpuscular haemoglobin (MCH) and corpuscular haemoglobin concentration (MCHC). For biochemistry analysis, the parameters were alanine transaminase (ALT), creatinine, alkaline phosphatase (ALP), aspartate aminotransferase (AST), total bilirubin and urea.
# The following organs were collected from all the dissected mice: lung, kidney, brain, spleen, and liver. All tissues were fixed in 10% (v/v) buffered formalin and processed for paraffin embedding. Hematoxylin–eosin (HE) was used to stain the histological sections at the histopathology laboratory, Veterinary Laboratory Service Unit, University Putra Malaysia (UPM).
# Streptococcus pneumoniae = settings: 30 pneumococcal clinical isolates; earlier study; ref Jindal et al., 2015; cited from earlier work
# From the text: Table 1 Sequences and physicochemical properties of the template and hybrid AMPs. | column: MIC^a || One of the advantageous alternatives to today’s antibiotics is antimicrobial peptides (AMPs) ([Deslouches et al., 2013]; [Sánchez-Vásquez et al., 2013]). AMPs are synthesized by almost all living beings as the first line of defense in their immune system against microbial infection. Many aspects favor AMPs over traditional antibiotics: a broad range of antimicrobial activity against pathogenic micro-organisms (including viruses, parasites, bacteria, and fungi), microbial pathogens are less efficient in developing resistance against AMPs, as killing take place in a short contact time and AMPs c ...
# [1] = IN, head doses: RN7-IN10, RN7-IN8 20 mg/kg
# [2] = SC, head doses: RN7-IN10, RN7-IN8 20 mg/kg
substance,measurement,setting,value
"FLGGLIKWWPWRR-NH2 [RN7-IN6, hybrid peptide of ranalexin (residues 1-7) and indolicidin (residues 8-13)]",Eosinophil,ICR (CD-1) mice; [1],3.5±0.9%
same,"Erythrocytes, RBC",ICR (CD-1) mice; [1],9.12±0.25 10^6/mm^3
same,"Hematocrit, HCT",ICR (CD-1) mice; [1],47.43±0.61%
same,Hemoglobin Hgb,ICR (CD-1) mice; [1],15 ± 0.28 g/dL
same,Lymphocytes,ICR (CD-1) mice; [1],47.67±12.2%
same,"Mean corpuscular haemoglobin concentration, MCHC",ICR (CD-1) mice; [1],31.7 ± 0.21 g/dL
same,"Mean corpuscular haemoglobin, MCH",ICR (CD-1) mice; [1],16.5 ± 0.17 pg
same,"Mean corpuscular volume, MCV",ICR (CD-1) mice; [1],52.66±1.24 µm^3
same,Monocytes,ICR (CD-1) mice; [1],2.7±0.57%
same,"White blood cells, WBC",ICR (CD-1) mice; [1],3.6±0.35 10^3/mm^3
same,"platelet Counts, PLT",ICR (CD-1) mice; [1],597.66±123.23 10^3/mm^3
same,Eosinophil,"ICR (CD-1) mice; IP, RN7-IN10, RN7-IN8 20 mg/kg",3.22±1.47%
same,"Erythrocytes, RBC","ICR (CD-1) mice; IP, RN7-IN10, RN7-IN8 20 mg/kg",8.71±0.44 10^6/mm^3
same,Granulocytes,"ICR (CD-1) mice; IP, RN7-IN10, RN7-IN8 20 mg/kg",57.87±11.66%
same,"Hematocrit, HCT","ICR (CD-1) mice; IP, RN7-IN10, RN7-IN8 20 mg/kg",44.97±1.75%
same,Hemoglobin Hgb,"ICR (CD-1) mice; IP, RN7-IN10, RN7-IN8 20 mg/kg",15.02 ± 0.59 g/dL
same,Lymphocytes,"ICR (CD-1) mice; IP, RN7-IN10, RN7-IN8 20 mg/kg",54.6±3.8%
same,"Mean corpuscular haemoglobin concentration, MCHC","ICR (CD-1) mice; IP, RN7-IN10, RN7-IN8 20 mg/kg",33.42 ± 0.62 g/dL
same,"Mean corpuscular haemoglobin, MCH","ICR (CD-1) mice; IP, RN7-IN10, RN7-IN8 20 mg/kg",16.67 ± 1.07 pg
same,"Mean corpuscular volume, MCV","ICR (CD-1) mice; IP, RN7-IN10, RN7-IN8 20 mg/kg",50.5±1.29 µm^3
same,Monocytes,"ICR (CD-1) mice; IP, RN7-IN10, RN7-IN8 20 mg/kg",2.53±0.33%
same,"White blood cells, WBC","ICR (CD-1) mice; IP, RN7-IN10, RN7-IN8 20 mg/kg",4.1±0.72 10^3/mm^3
same,"platelet Counts, PLT","ICR (CD-1) mice; IP, RN7-IN10, RN7-IN8 20 mg/kg",540.75±107.41 10^3/mm^3
same,maximum IP dose at which no signs of stress or abnormal behavior were evident (non-toxic dose),"ICR (CD-1) mice; IP, doses at 1 h, 12 h, 24 h, no death up to seven days",10 mg/kg
same,Eosinophil,ICR (CD-1) mice; [2],2.7±0.71%
same,"Erythrocytes, RBC",ICR (CD-1) mice; [2],9.59±0.92 10^6/mm^3
same,Granulocytes,ICR (CD-1) mice; [2],51.12±5.16%
same,"Hematocrit, HCT",ICR (CD-1) mice; [2],49.2±4.43%
same,Hemoglobin Hgb,ICR (CD-1) mice; [2],16.17 ± 1.44 g/dL
same,Lymphocytes,ICR (CD-1) mice; [2],51.85±3.3%
same,"Mean corpuscular haemoglobin concentration, MCHC",ICR (CD-1) mice; [2],32.87 ± 0.42 g/dL
same,"Mean corpuscular haemoglobin, MCH",ICR (CD-1) mice; [2],16.85 ± 0.3 pg
same,"Mean corpuscular volume, MCV",ICR (CD-1) mice; [2],50±1.82 µm^3
same,Monocytes,ICR (CD-1) mice; [2],2.8±0.25%
same,"White blood cells, WBC",ICR (CD-1) mice; [2],3.86±0.34 10^3/mm^3
same,"Alanine transaminase, ALT",ICR (CD-1) mice; [1],43.2±7.56
same,"Alkaline phosphatase, ALP",ICR (CD-1) mice; [1],138.33±5.5
same,"Aspartate aminotransferase, AST",ICR (CD-1) mice; [1],140±7.2
same,Creatinine,ICR (CD-1) mice; [1],40.15±3.6
same,Total bilirubin,ICR (CD-1) mice; [1],1.95±0.08
same,Urea,ICR (CD-1) mice; [1],10.14±1.52
same,"Alkaline phosphatase, ALP","ICR (CD-1) mice; IP, RN7-IN10, RN7-IN8 20 mg/kg",114.97±24.9
same,"Aspartate aminotransferase, AST","ICR (CD-1) mice; IP, RN7-IN10, RN7-IN8 20 mg/kg",176±19.31
same,Creatinine,"ICR (CD-1) mice; IP, RN7-IN10, RN7-IN8 20 mg/kg",41.47±4.2
same,Total bilirubin,"ICR (CD-1) mice; IP, RN7-IN10, RN7-IN8 20 mg/kg",2.1±0.1
same,Urea,"ICR (CD-1) mice; IP, RN7-IN10, RN7-IN8 20 mg/kg",8.97±1.17
same,"Alanine transaminase, ALT",ICR (CD-1) mice; [2],43.32±10.3
same,"Alkaline phosphatase, ALP",ICR (CD-1) mice; [2],106.56±20.1
same,"Aspartate aminotransferase, AST",ICR (CD-1) mice; [2],158.25±18.9
same,Creatinine,ICR (CD-1) mice; [2],34.89±0.25
same,Total bilirubin,ICR (CD-1) mice; [2],2.03±0.14
same,Urea,ICR (CD-1) mice; [2],9.07±2.02
same,"MIC, minimum inhibitory concentration",Streptococcus pneumoniae,7.81 to 15.62 µg/mL
